From patent US20240425491A1, “HETEROARYL COMPOUNDS USEFUL IN THE TREATMENT OF COGNITIVE DISORDERS” (University College Cardiff Consultants Limited, priority 2021, published 2024)

What was measured:
[1] = tested on: mouse hippocampal brain slices (LTP suppressed by etomidate); test: Electrophysiology in hippocampal slices - long term potentiation assay
[2] = molecular target: T1, human α5β3γ2 GABAARs in mouse L(tk−) cells (Homo sapiens, UniProt P18507+P31644); test: In vitro electrophysiological recording assay (α5-GABAAR relative efficacy), QPatch; type: cell-based
T1 construct: expressed in transfected cells; host or cells: mouse L(tk−) cells, dexamethasone-inducible vector pMSGneo
How it was run: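 Whole-cell QPatch recordings at 20-22° C, −65 mV holding, in dexamethasone-induced (1 μM, 24 h) L(tk−) cells. Compound pre-applied ≥1 min, then co-applied with GABA EC10-20; percentage change in leak-corrected peak current, taken at ≥100× Ki, normalised to DMCM efficacy; 0.1% DMSO final.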

[3] = molecular target: T2, human α5β3γ2L GABAA receptors in HEK293 cells (Homo sapiens, UniProt P18507+P31644); test: In vitro electrophysiological recording assay (α5-GABAAR relative efficacy), SyncroPatch; type: cell-based; conditions: Conc 0.1 μM; GABA EC10-20
T2 construct: expressed in transfected cells
How it was run: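 HEK293 cells stably expressing the receptor, automated whole-cell patch clamp at −80 mV, room temperature (20-22° C). Compound pre-incubated 1-2 min, then co-applied with GABA EC10-20; % change in peak current vs GABA alone (leak-subtracted). Tested generally at ≥100× Ki and normalised to DMCM efficacy as relative efficacy.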

T1 sequence (P31644 32-462): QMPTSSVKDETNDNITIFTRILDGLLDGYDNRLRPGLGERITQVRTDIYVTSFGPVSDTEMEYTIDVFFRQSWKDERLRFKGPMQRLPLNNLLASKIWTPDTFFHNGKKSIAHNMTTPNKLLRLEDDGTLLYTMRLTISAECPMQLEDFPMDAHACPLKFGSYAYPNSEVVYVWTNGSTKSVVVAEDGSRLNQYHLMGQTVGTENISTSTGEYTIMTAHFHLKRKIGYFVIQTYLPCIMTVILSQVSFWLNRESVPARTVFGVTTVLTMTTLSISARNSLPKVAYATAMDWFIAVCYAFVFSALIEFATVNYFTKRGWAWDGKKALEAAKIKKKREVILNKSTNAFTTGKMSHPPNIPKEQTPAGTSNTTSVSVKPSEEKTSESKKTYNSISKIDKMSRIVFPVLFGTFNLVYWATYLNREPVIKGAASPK
T1 sequence (P28472 26-473 partner): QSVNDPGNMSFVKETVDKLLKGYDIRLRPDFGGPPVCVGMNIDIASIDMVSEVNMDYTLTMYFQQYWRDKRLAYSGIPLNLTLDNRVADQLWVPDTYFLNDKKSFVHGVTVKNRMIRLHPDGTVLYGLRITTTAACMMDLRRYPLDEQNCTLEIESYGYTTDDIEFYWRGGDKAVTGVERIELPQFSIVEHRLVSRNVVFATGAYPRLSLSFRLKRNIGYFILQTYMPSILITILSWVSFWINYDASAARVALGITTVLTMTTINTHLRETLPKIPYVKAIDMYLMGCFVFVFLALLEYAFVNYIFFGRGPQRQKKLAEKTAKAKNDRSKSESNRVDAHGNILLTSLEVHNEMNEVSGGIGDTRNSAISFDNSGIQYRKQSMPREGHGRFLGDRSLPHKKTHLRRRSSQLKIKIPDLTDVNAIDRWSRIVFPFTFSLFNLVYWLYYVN
T1 sequence (P18507 40-475): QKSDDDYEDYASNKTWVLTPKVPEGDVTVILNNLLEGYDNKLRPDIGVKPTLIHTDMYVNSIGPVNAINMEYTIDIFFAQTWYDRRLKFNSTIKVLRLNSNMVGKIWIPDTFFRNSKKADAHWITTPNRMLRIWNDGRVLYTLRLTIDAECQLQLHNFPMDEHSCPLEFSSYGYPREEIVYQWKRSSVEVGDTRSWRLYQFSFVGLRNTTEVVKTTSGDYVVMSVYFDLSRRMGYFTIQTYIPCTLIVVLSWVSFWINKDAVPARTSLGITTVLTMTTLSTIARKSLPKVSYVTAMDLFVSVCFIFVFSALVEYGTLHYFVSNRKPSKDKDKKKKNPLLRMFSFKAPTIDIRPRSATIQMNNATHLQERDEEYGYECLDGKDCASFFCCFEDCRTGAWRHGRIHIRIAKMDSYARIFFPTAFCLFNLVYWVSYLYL
T2 sequence (P31644 32-462): as the sequence (P31644 32-462) above
T2 sequence (P28472 26-473 partner): as the sequence (P28472 26-473 partner) above
T2 sequence (P18507 40-475): as the sequence (P18507 40-475) above

## COc1nc(-n2ccnc2)ccc1NC(=O)c1c(-c2ccccc2)noc1C [Example 1, N-(6-Imidazol-1-yl-2-methoxy-3-pyridyl)-5-methyl-3-phenyl-isoxazole-4-carboxamide]
[1]; 1 μM co-added with etomidate 3 μM, n=6, FIG. 2A
  magnitude of LTP (fEPSP slope as % of control fEPSPs prior to 4-TBS vs time): rescued
[1]; co-incubation with etomidate, one-way ANOVA, post-hoc Tukey, p<0.05, FIG. 2B
  fEPSP slope at 50-60 min post-delivery of the 4-TBS: significantly increased fEPSP slope
[2]; 1 μM, QPatch, same cell before and after addition, FIG. 1
  GABA-elicited whole-cell current in the presence of compound: smaller current
[2]; Conc 1 μM, GABA EC10-20
  α5-GABAAR Relative Efficacy (to DMCM), Qpatch: −0.91
[3]
  α5-GABAAR Relative Efficacy (to DMCM), SyncroPatch: −1.11
